In PubChem BioAssay (NCI):
Values joined by “and” are separate entries in the source; they are usually repeats but may differ in a detail not shown here. Equal values may be shown once.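 Results reflect a 48-hour exposure of cells in 96-well plates to compound at five concentrations. GI50 is the concentration that inhibits growth by half. Definition used: TGI = concentration required for complete inhibition of growth.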

Key:
Experiment in all cases: DTP human tumour cell line panel, 48 h
ACHN renal = tested on: ACHN renal
HOP-92 NSCLC = tested on: HOP-92 NSCLC
SW-620 colon = tested on: SW-620 colon
U251 CNS = tested on: U251 CNS
SN12C renal = tested on: SN12C renal
MALME-3M melanoma = tested on: MALME-3M melanoma
NCI-H460 lung = tested on: NCI-H460 lung
NCI-H522 lung = tested on: NCI-H522 lung
K-562 leukemia = tested on: K-562 leukemia
SNB-75 CNS = tested on: SNB-75 CNS

`COC(C)(C)C/C=C/C(C)=C/C=C/C(C)=C\C=C\C(C)=C\C=C\C=C(C)\C=C\C=C(C)\C=C\C=C(C)\C=C\CC(C)(C)OC` was tested, and the GI50 (ACHN renal) was > 150 µg/mL, the TGI (ACHN renal) was > 150 µg/mL and the GI50 (HOP-92 NSCLC) was > 150 µg/mL. For the same compound, the TGI (HOP-92 NSCLC) was > 150 µg/mL, the GI50 (SW-620 colon) was > 150 µg/mL and the TGI (SW-620 colon) was > 150 µg/mL. For the same compound, the GI50 (U251 CNS) was > 150 µg/mL, the TGI (U251 CNS) was > 150 µg/mL and the GI50 (SN12C renal) was > 150 µg/mL. For the same compound, the TGI (SN12C renal) was > 150 µg/mL, the GI50 (MALME-3M melanoma) was > 150 µg/mL and the TGI (MALME-3M melanoma) was > 150 µg/mL. The GI50 (NCI-H460 lung) was > 150 µg/mL, the TGI (NCI-H460 lung) was > 150 µg/mL and the GI50 (NCI-H522 lung) was > 150 µg/mL. For the same compound, the TGI (NCI-H522 lung) was > 150 µg/mL, the GI50 (K-562 leukemia) was > 150 µg/mL and the TGI (K-562 leukemia) was > 150 µg/mL. The GI50 (SNB-75 CNS) was > 150 µg/mL and the TGI (SNB-75 CNS) was > 150 µg/mL.
With `C=CCC1C(=O)CC2(C)CC(=O)C(CC=C)C12C` (stereo not given) the TGI (ACHN renal) was > 100 µM, the TGI (HOP-92 NSCLC) was > 100 µM and the TGI (SW-620 colon) was > 100 µM. For the same compound, the TGI (U251 CNS) was > 100 µM, the TGI (SN12C renal) was > 100 µM and the TGI (MALME-3M melanoma) was > 100 µM. The TGI (NCI-H460 lung) was > 100 µM, the TGI (NCI-H522 lung) was > 100 µM and the TGI (K-562 leukemia) was > 100 µM. The TGI (SNB-75 CNS) was > 100 µM.
For `NCCCNCCCCNC(=O)C(O)NC(=O)CCCCCCN=C(N)N` (stereo not given), the GI50 (ACHN renal) was 2750 µM, the TGI (ACHN renal) was > 5000 µM and the GI50 (HOP-92 NSCLC) was 2660 µM. For the same compound, the TGI (HOP-92 NSCLC) was 745 µM and > 4350 µM, the GI50 (SW-620 colon) was 1900 µM and the TGI (SW-620 colon) was > 5000 µM. The GI50 (U251 CNS) was 2080 µM, the TGI (U251 CNS) was 636 µM and > 4540 µM and the GI50 (SN12C renal) was 2040 µM. For the same compound, the TGI (SN12C renal) was > 5000 µM, the GI50 (MALME-3M melanoma) was 1920 µM and the TGI (MALME-3M melanoma) was 628 µM and 3050 µM. For the same compound, the GI50 (NCI-H460 lung) was > 2770 µM, the TGI (NCI-H460 lung) was 750 µM and > 5000 µM and the GI50 (NCI-H522 lung) was 1350 µM. The TGI (NCI-H522 lung) was 636 µM and 2860 µM, the GI50 (K-562 leukemia) was 805 µM and the TGI (K-562 leukemia) was 750 µM and > 3610 µM. For the same compound, the GI50 (SNB-75 CNS) was > 1870 µM and the TGI (SNB-75 CNS) was 671 µM and > 3170 µM.
In the case of `O=C1c2ccccc2-c2c1c1ccccc1c(=O)n2CCCn1ccnc1`, the GI50 (ACHN renal) is reported as 0.885 µM, the TGI (ACHN renal) is reported as 3.43 µM and the GI50 (HOP-92 NSCLC) is reported as 1.83 µM. The TGI (HOP-92 NSCLC) was 6.45 µM, the GI50 (SW-620 colon) was 0.949 µM and the TGI (SW-620 colon) was 30.2 µM. It also gave a GI50 (U251 CNS) of 0.793 µM, a TGI (U251 CNS) of 6.83 µM and a GI50 (SN12C renal) of 1.66 µM. For the same compound, the TGI (SN12C renal) was 4.31 µM, the GI50 (MALME-3M melanoma) was 2.45 µM and the TGI (MALME-3M melanoma) was 5.75 µM. It also gave a GI50 (NCI-H460 lung) of 1.17 µM, a TGI (NCI-H460 lung) of 10.4 µM and a GI50 (NCI-H522 lung) of 2.14 µM. For the same compound, the TGI (NCI-H522 lung) was > 100 µM, the GI50 (K-562 leukemia) was 1.45 µM and the TGI (K-562 leukemia) was 4.64 µM. It also gave a GI50 (SNB-75 CNS) of 5.82 µM and a TGI (SNB-75 CNS) of 93.4 µM.
With `COc1cc(-c2nc(SCCC(C)C)nc(Nc3ccc(S(N)(=O)=O)cc3)c2C#N)cc(OC)c1OC` the GI50 (ACHN renal) was 2.79 µM, the TGI (ACHN renal) was > 100 µM and the GI50 (HOP-92 NSCLC) was 1.48 µM. The TGI (HOP-92 NSCLC) was 4.47 µM, the GI50 (SW-620 colon) was 3.08 µM and the TGI (SW-620 colon) was > 100 µM. The GI50 (U251 CNS) was 3.17 µM, the TGI (U251 CNS) was > 100 µM and the GI50 (SN12C renal) was 1.81 µM. It also gave a TGI (SN12C renal) of 3.51 µM, a GI50 (MALME-3M melanoma) of 1.6 µM and a TGI (MALME-3M melanoma) of 4.14 µM. The GI50 (NCI-H460 lung) was 2.8 µM, the TGI (NCI-H460 lung) was 8.45 µM and the GI50 (NCI-H522 lung) was 3.52 µM. The TGI (NCI-H522 lung) was > 100 µM, the GI50 (K-562 leukemia) was 2.73 µM and the TGI (K-562 leukemia) was > 100 µM. It also gave a GI50 (SNB-75 CNS) of 2.15 µM and a TGI (SNB-75 CNS) of 54.2 µM.
In the case of `CCNC(=O)O[C@H]1CN[C@H](C#Cc2cc3ncnc(Nc4ccc(OCc5cccc(F)c5)c(Cl)c4)c3s2)C1`, the GI50 (ACHN renal) is reported as 1.99 µM, the TGI (ACHN renal) is reported as > 25 µM and the GI50 (HOP-92 NSCLC) is reported as 0.83 µM. The TGI (HOP-92 NSCLC) was 11.4 µM, the GI50 (SW-620 colon) was 12 µM and the TGI (SW-620 colon) was > 25 µM. For the same compound, the GI50 (U251 CNS) was 9.24 µM, the TGI (U251 CNS) was > 25 µM and the GI50 (SN12C renal) was 5.71 µM. For the same compound, the TGI (SN12C renal) was > 25 µM, the GI50 (MALME-3M melanoma) was 3.99 µM and the TGI (MALME-3M melanoma) was 11.7 µM. The GI50 (NCI-H460 lung) was 6.84 µM, the TGI (NCI-H460 lung) was > 25 µM and the GI50 (NCI-H522 lung) was 0.371 µM. For the same compound, the TGI (NCI-H522 lung) was 5.91 µM, the GI50 (K-562 leukemia) was 9.45 µM and the TGI (K-562 leukemia) was > 25 µM. For the same compound, the GI50 (SNB-75 CNS) was 4.76 µM and the TGI (SNB-75 CNS) was > 25 µM.
